Measurements reported in patent US20240125775A1, “IMMOBILIZATION AND MAGNETIC EXTRACTION OF PATHOGENS AND PATHOGEN COMPONENTS” (priority 2020, published 2024).
Entries after “also recorded” stand apart in the source; their conditions may differ. Ends that are not written are not given here.

Legend:
E. coli [1] = experiment: Magnetic separation of E. coli from aqueous medium (Ringer solution); assay type: cell-based; details: 5 minutes incubation, 3 minutes separation
Procedure: E. coli were incubated with particles for 5 minutes and then separated for 3 minutes. Supernatants were plated out. […] A reduction of the particle amount to 0.1 mg Fe/ml led to a reduced bacterial separation 170 CFUS).

Pseudomonas aeruginosa = experiment: Depletion of Pseudomonas aeruginosa from aqueous medium; assay type: cell-based; details: from 5320 CFU/ml, 0.3 mg Fe/ml
Procedure: (§1) Analogous observations are shown in FIG. 13 for the gram negative bacterium Pseudomonas aeruginosa reduction from 5320 CFU/ml to 2 CFU/ml for SPION^APTES-SBA-SPP04 and 7 CFU/ml for SPION^APTES-SBA-SPP19 could be achieved. For Serratia marcescens (gram−) a reduction from 1300 CFU/ml to 26 CFU/ml for SPION^APTES-SBA-SPP04 could be achieved as shown in FIG. 14. Redispersed particles that were plated out yielding a recovery of 1227 CFU/ml for SPION^APTES-SBA-SPP04, which is similar to the positive control.

Staphylococcus aureus = experiment: Depletion of Staphylococcus aureus from aqueous medium; assay type: cell-based; details: for Staphylococcus aureus after separation: from 1393 CFU/ml, 0.3 mg Fe/ml, Ringer's solution; for CFU of re-plated bacteria loaded particles: re-plating, S. aureus
Text: For testing the separation of S. aureus from a sample, particles were functionalized with the peptides SPP04 and SPP19 for this experiment. The bacterial suspension was adjusted to an OD (measured at 600 nm) of 0.13 and then diluted 1:800 with Ringer's solution. […] It could also be shown that the particles have no toxic effect on the bacteria. For Staphylococcus aureus (gram+) a reduction from 1393 CFU/ml to 27 CFU/ml for SPION^APTES-SBA-SPP04 and 73 CFU/ml for SPION^APTES-SBA-SPP19 could be achieved by separation as shown in FIG. 12.

bacteria = experiment: Concentration of viable bacteria (10 ml sample, plating); assay type: cell-based; details: 0.3 mg Fe/ml, 30 minutes, 310 mT 3 minutes, 10 ml to 0.5 ml
Procedure: In this experiment, an approach as used with common blood cultures in order to identify pathogens was chosen. The total volume was set to 10 ml. The bacterial suspension was adjusted to an OD (measured at 600 nm) of 0.13 with Ringer's solution analogous to the previous experiments. A sample, which was not treated with SPIONs, served as a control. A concentration of 0.3 mg Fe/ml SPION^APTES-SBA-SPP04 was used. Incubation was performed for 30 minutes at room temperature on a rolling incubator. The particles were then magnetically separated for 3 minutes at 310 mT. 0.5 ml Ringer's solution was added to the particle pellets and vortexed. […] A total of 50 μl was plated out for each sample. […] Compared to common blood cultures, bacterial pathogens can be detected faster by using this method, because the amplification step of the bacteria using blood culture bottles could be omitted.

Serratia marcescens = experiment: Depletion of Serratia marcescens from aqueous medium; assay type: cell-based
Procedure: as §1

E. coli [2] = experiment: Separation of E. coli from blood; assay type: cell-based
Procedure: For this experiment, E. coli was added to blood and then 0.3 mg Fe/ml particles were used to extract/separate the bacteria. Thus, the remaining bacterial load in the blood was tested as a first aspect of this experiment. Furthermore, citrate and EDTA-stabilized blood was used and compared, as EDTA is expected to hinder the binding of the peptide to the bacteria. Therefore, the depletion of bacteria is expected to be lower in EDTA-stabilized blood compared to citrate-stabilized blood. The overall bacterial load in citrate stabilized blood amounted to 1913 colony forming units per milliliter (CFU/ml) (FIG. 15). SPION^APTES-SBA-SPP04 particles reduced the concentration to 927 CFU/ml in citrate-stabilized blood. […] For completeness, in EDTA-stabilized blood, the amount of CFUs was reduced from 2867 CFU/ml to 1733 CFU/ml by SPION^APTES-SBA-SPP04. Thus, a reduction of around 40% was achieved.
In this experiment we used blood from health volunteers and added an amount of bacteria to it. A concentration of 0.3 mg Fe/ml was used for the particles. To 0.8 ml of blood, (citrate or EDTA stabilized) 0.1 bacteria suspension in Ringer's solution have been added. After 5 min. of incubation, 0.1 ml of particles (3 mg Fe/ml) in Ringer's solution have been added. Samples were incubated for 5 minutes on a shaker at 700 rpm. After incubation, the particles have been removed by placing a magnet (310 mT) behind the samples. After 3 min separation of the particles the supernatant were plated out. As a negative control only 0.2 ml Ringer's solution was added to blood. The positive control consisted of 0.8 ml blood and 0.1 ml bacteria suspension and another 0.1 ml Ringer's solution. In addition the particles were washed one time after separation and then redispersed in Ringer's solution and plated out.
After 16 h of incubation, the CFUs (colony forming units) on the plates have been counted. The samples have been compared to the amount found in the positive control.

[3] = Hydrodynamic particle size (dynamic light scattering); assay type: physicochemical; details: neutral pH (e.g. around 7)
Procedure: Dynamic light scattering (DLS) was performed with a Zetasizer Nano ZS (Malvern Panalytical, Almelo, Netherlands) to determine the hydrodynamic particle size of the NP at 25° C.in water (refractive index 1.33; viscosity 0.8872 mPa-s; backscattering mode at 173°). The same device was used to measure the particle's aqueous zeta potential with 78.5 as dielectric constant. Measurements were done in triplicate at an iron concentration of 50 μg/ml and pH of 7.4, the results were averaged.

[4] = test system: LPS (E. coli LPS O55:B5, O26:B6, O111:B4); experiment: LPS (endotoxin) binding, EndoZyme Recombinant Factor C Assay; details: 10 EU/ml LPS
Procedure: In order to evaluate general parameters of the concentration and incubation time with SPIONs, the inventors analysed conditions that are representative for these parameters. A high and a low particle concentration, as well as two exposure conditions were tested (agitation for 30 sec and 3 sec; particle concentration of 0.01 mg Fe/ml and 1 mg Fe/ml) were tested with the peptide exposing SPION^APTES-SBA-SPP04 and non-peptide exposing SPION^HAP. The concentration of peptide for the functionalized particles was assumed to be 0.08 μmol peptide/mg Fe, as assessed above. As other particles have been reported to bind certain amounts of LPS unspecifically, SPION^HAp are interesting for our experiments concerning this concern as a control.
Binding studies of endotoxin were performed with EndoZyme Recombinant Factor C Assay kit (Hyglos, Germany). In this kit, LPS is detected by recombinant Factor C, thus excluding possible interferences by p-glucans. Calibration curves for the three different LPSs have been prepared in endotoxin free water. SPION^APTES-SBA-SPP04 was used in this study as its efficacy has been described previously. For this experiment, we used two different iron concentrations (1 mg Fe/ml and 0.01 mg Fe/ml) and two incubation parameters (30 s at 1400 rpm and 37° C. as well as 3 s at RT). Three different LPSs were added to 200 μl of the different particle dispersions. The final concentration of LPS was set to 10 EU/ml in each tested sample. Spiking controls (8 and 5 EU/ml) were carried out to see if any interference occurred for all tested particles.
Supernatants were produced using a neodymium magnet (310 mT at separation side) for three minutes. 50 μl of each supernatant were mixed with 50 μl of the assay reagent (80% v/v assay buffer, 10% v/v substrate, 10% v/v enzyme) in black, endotoxin-free 96-well plates. The reaction was monitored for 90 minutes at 37° C. in 15 min intervals by recording the fluorescence at an excitation wavelength of 360 nm and an emission at 465 nm in a Filter-Max F5 Plate reader (Molecular Devices).

[5] = test system: lipoteichonic acids (LTA); experiment: Binding of LTA in aqueous Ringer' solution; details: 0.3 mg Fe/ml, 2.5 ng/ml LTA; for LTA bound: 5 minutes at 37° C., magnet 3 minutes
Procedure: The binding of a further relevant toxin (from gram-positive bacteria) was also investigated with the improved particles as disclosed herein, which was not described in Karawacka et al. (2018). These experiments were performed in aqueous Ringer' solution. […] For this experiment, 2.5 ng/ml LTA were used and incubated for 5 minutes at 37° C. on a shaker at 700 rpm. Subsequently, the particles were separated magnetically for 3 minutes. […] SPION^APTES-SBA-SPP04/SPION^APTES-SBA-SPP19 could bind 0.75 ng/ml LTA and 0.97 ng/ml, respectively. Thus, a reduction of LTA by 30% and 29%, respectively, could be detected by using the improved particles SPION^APTES-SBA-SPP04/SPION^APTES-SBA-SPP19 as disclosed herein.

[6] = Separation of micromer^LPS (artificial gram-negative bacteria); details: initial 0.1 mg/ml micromer^LPS, 1 mg/ml Fe, 2 h, OD 620 nm
Procedure: For a better understanding of the separation process, the inventors tried to remove artificial micromers to simulate bacteria. For this, LPS coated polystyrene/polymethacrylate Micromer® particles (micromer^LPS) were used and removed from a water suspension instead of living bacteria. […] This experiment was performed by optical density measurements at 620 nm, as it is done for actual bacteria.
For this experiment micromer® particles (micromer) were incubated with endotoxin to receive endotoxin coated micromer particles (micromer^LPS). Any other polymeric particles of similar size could have been used as an alternative. It has been reported, that endotoxins stick to surfaces and can be attached to polymeric particles. Therefore, particles bearing 1 mg particles/ml was incubated with 1 μg/ml endotoxin LPS3 for 2 h at 1400 rpm. After centrifugation the particles were washed several times.
SPION^APTES-SBA-SPP04 and unmodified SPION^HAp with a Fe concentration of 1 mg/ml were incubated with 0.1 mg micromer^LPS for 2 h at 1400 rpm and 37° ° C. SPION^APTES served as a control. A calibration curve was prepared with different concentrations of micromer^LPS. The calibration samples and the magnetically decanted supernatants were measured in the reader at 620 nm absorption wavelength like it is used for the OD measurements of bacteria (Brenner et al. 2005 and Chen et al. 2011). […]

For “SPION^APTES-SBA-SPP04: APTES-coated SPIONs linked via SBA to peptide SPP04 (SEQ ID NO: 1) (RKQGRVEVLYRASWGTVC; also: conjugated via SBA linker to APTES-coated SPIONs)”, the “E. coli in supernatant” value (E. coli [1]; 0.1 mg Fe/ml) was 170 CFUs, the “E. coli in supernatant” value (E. coli [1]; 1.0 mg Fe/ml) was 2 CFU/ml and the “Pseudomonas aeruginosa after separation” value (Pseudomonas aeruginosa) was 2 CFU/ml. The “Staphylococcus aureus after separation” value (Staphylococcus aureus) was 27 CFU/ml, the “CFU of re-plated bacteria loaded particles” value (Staphylococcus aureus) was “in the range of the positive control; also recorded: even increased” and the “plating of sample concentrated with SPIONs” value (bacteria) was “dense bacterial lawn”. For the same substance, the “Serratia marcescens after separation” value (Serratia marcescens; from 1300 CFU/ml, 0.3 mg Fe/ml) was 26 CFU/ml, the “recovery from redispersed, plated particles” value (Serratia marcescens; re-plating, Serratia marcescens) was 1227 CFU/ml and the “replating of extracted bacteria” value (E. coli [2]; EDTA-stabilized blood) was 1066 CFU/ml. For the same substance, the “reduction of bacterial load” value (E. coli [2]; EDTA-stabilized blood, 0.3 mg Fe/ml) was “around 40%”, the “E. coli remaining in blood” value (E. coli [2]; EDTA-stabilized blood, from 2867 CFU/ml, 0.3 mg Fe/ml) was 1733 CFU/ml and the “replating of extracted bacteria” value (E. coli [2]; citrate-stabilized blood) was 913 CFU/ml. The “E. coli remaining in blood” value (E. coli [2]; citrate-stabilized blood, from 1913 CFU/ml, 0.3 mg Fe/ml) was 927 CFU/ml, the “particle diameter after functionalization with peptide” value [3] was 2.54 μm and the “binding of LPS” value ([4]; 0.01 mg Fe/ml (FIG. 8C, D)) was “about 50%”. For the same substance, the “reduction / binding of LPS, all LPS types” value ([4]; 0.01 mg Fe/ml, 3 seconds) was “at least 40%”, the “reduction of LPS, all three LPS types” value ([4]; 0.01 mg Fe/ml, 30 seconds) was “at least 48%” and the LPS bound ([4]; 1 mg Fe/ml, 3 s) was 94%. For the same substance, the “remaining LPS” value ([4]; 1 mg Fe/ml, 3 s) was “up to 6%”, the “LPS removal” value ([4]; 1 mg Fe/ml, 30 s of agitation) was “completely removed the LPS below the detection limit; also recorded: completely removed the endotoxin below the detection limit” and the “reduction of LTA” value [5] was 30%. The LTA bound [5] was 0.75 ng/mL and the “remaining micromer^LPS” value [6] was 0.023 mg/mL.

With “SPION^APTES-SBA-SPP19: APTES-coated SPIONs linked via SBA to peptide SPP19 (SEQ ID NO: 2) (RKQGRVEILYRGSWGTVC; also: conjugated via SBA linker to APTES-coated SPIONs)” the “Pseudomonas aeruginosa after separation” value (Pseudomonas aeruginosa) was 7 CFU/ml, the “Staphylococcus aureus after separation” value (Staphylococcus aureus) was 73 CFU/ml and the “CFU of re-plated bacteria loaded particles” value (Staphylococcus aureus) was “in the range of the positive control”. For the same substance, the “reduction of LTA” value [5] was 29% and the LTA bound [5] was 0.97 ng/mL.
